Experimental data: ChEMBL document CHEMBL1201862, “PubChem BioAssay data set” (2004)
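Method: 48-hour compound exposure of cells in 96-well plates, five concentrations, linear interpolation of endpoints. At the GI50, growth is halved.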 Activity calls are given as the source filed them. Rule as the data show it: active = GI50 up to about 1.1 µM and inactive = higher.

Tests used:
Experiment in all cases: inhibition of tumour cell growth, NCI panel, 48 h
[1] = system: DLD-1
[2] = system: SF-539
[3] = system: LXFL 529
[4] = system: LOX IMVI
[5] = system: HL-60
[6] = system: MOLT-4
[7] = system: SW-620
[8] = system: SNB-78
[9] = system: SF-295
[10] = system: UACC-62
[11] = system: SN12C
[12] = system: RXF 393
[13] = system: OVCAR-4
[14] = system: SK-MEL-2
[15] = system: KM-20L2
[16] = system: XF498
[17] = system: DMS-114
[18] = system: SF-268
[19] = system: A498
[20] = system: RXF 631
[21] = system: HCT-116
[22] = system: HT-29
[23] = system: HCT-15
[24] = system: IGROV-1
[25] = system: CCRF-CEM
[26] = system: Malme-3M
[27] = system: CAKI-1
[28] = system: NCI-H522
[29] = system: M14
[30] = system: TK-10
[31] = system: SK-MEL-5
[32] = system: M19-MEL
[33] = system: SNB-75
[34] = system: 786-0
[35] = system: OVCAR-5
[36] = system: A549
[37] = system: SNB-19
[38] = system: HOP-18
[39] = system: ACHN
[40] = system: RPMI-8226
[41] = system: HOP-92
[42] = system: NCI-H23
[43] = system: EKVX
[44] = system: DMS-273
[45] = system: HOP-62
[46] = system: UO-31
[47] = system: KM12
[48] = system: U-251
[49] = system: SK-MEL-28
[50] = system: SK-OV-3
[51] = system: K562
[52] = system: HCC 2998
[53] = system: OVCAR-8
[54] = system: SR
[55] = system: NCI-H460
[56] = system: NCI-H226
[57] = system: UACC-257
[58] = system: COLO 205
[59] = system: OVCAR-3

Question: What does the source list for `COc1ccccc1NC(=O)C(=O)C(c1cnc2ccc([N+](=O)[O-])cc2n1)[N+](=O)[O-]` (configuration not stated)?
Answer: GI50 [1]: > 100 µM (inactive); GI50 [2]: > 100 µM (inactive); GI50 [3]: 75 µM (inactive); GI50 [4]: > 100 µM (inactive); GI50 [5]: 19.5 µM (inactive); GI50 [6]: 32.8 µM (inactive); GI50 [7]: > 100 µM (inactive); GI50 [8]: > 100 µM (inactive); GI50 [9]: > 100 µM (inactive); GI50 [10]: 53 µM (inactive); GI50 [11]: > 100 µM (inactive); GI50 [12]: > 100 µM (inactive); GI50 [13]: > 100 µM (inactive); GI50 [14]: > 100 µM (inactive); GI50 [15]: > 100 µM (inactive); GI50 [16]: > 100 µM (inactive); GI50 [17]: 17.9 µM (inactive); GI50 [18]: > 100 µM (inactive); GI50 [19]: > 100 µM (inactive); GI50 [20]: 39.2 µM (inactive); GI50 [21]: > 100 µM (inactive); GI50 [22]: > 100 µM (inactive); GI50 [23]: > 100 µM; GI50 [24]: > 100 µM (inactive); GI50 [25]: 26 µM (inactive); GI50 [26]: > 100 µM (inactive); GI50 [27]: > 100 µM (inactive); GI50 [28]: 8.71 µM (inactive); GI50 [29]: 78.7 µM (inactive); GI50 [30]: > 100 µM (inactive); GI50 [31]: > 100 µM (inactive); GI50 [32]: > 100 µM (inactive); GI50 [33]: > 100 µM (inactive); GI50 [34]: > 100 µM (inactive); GI50 [35]: > 100 µM (inactive); GI50 [36]: > 100 µM (inactive); GI50 [37]: > 100 µM (inactive); GI50 [38]: > 100 µM (inactive); GI50 [39]: 87.3 µM (inactive); GI50 [40]: 25.2 µM (inactive); GI50 [41]: > 100 µM (inactive); GI50 [42]: > 100 µM (inactive); GI50 [43]: > 100 µM (inactive); GI50 [44]: 64 µM (inactive); GI50 [45]: > 100 µM (inactive); GI50 [46]: 78 µM (inactive); GI50 [47]: > 100 µM (inactive); GI50 [48]: > 100 µM (inactive); GI50 [49]: > 100 µM (inactive); GI50 [50]: > 100 µM (inactive); GI50 [51]: 31.5 µM (inactive); GI50 [52]: 92 µM (inactive); GI50 [53]: > 100 µM (inactive); GI50 [54]: 45.6 µM (inactive); GI50 [55]: > 100 µM (inactive); GI50 [56]: > 100 µM (inactive); GI50 [57]: > 100 µM (inactive); GI50 [58]: 38.3 µM (inactive)

Question: With `COc1ccc(C(=O)C(c2ccc(OC)cc2)C2C(=O)Oc3ccccc32)cc1` (configuration not stated) as the molecule, how does the GI50 [1] read?
Answer: Its GI50 is > 10 µM (inactive).

Question: And the GI50 [2]?
Answer: The GI50 was > 10 µM (inactive).

Question: What about the GI50 [3] of the same molecule?
Answer: The GI50 was > 10 µM (inactive).

Question: And the GI50 [4]?
Answer: The GI50 was > 10 µM (inactive).

Question: What about the GI50 [5] of the same molecule?
Answer: The GI50 was > 10 µM (inactive).

Question: And the GI50 [6]?
Answer: The GI50 was > 10 µM (inactive).

Question: And the GI50 [7]?
Answer: Its GI50 is > 10 µM (inactive).

Question: And the GI50 [8]?
Answer: The GI50 was 67.9 µM (inactive).

Question: What about the GI50 [9] of the same molecule?
Answer: The GI50 was > 10 µM (inactive).

Question: And the GI50 [10]?
Answer: Its GI50 is > 10 µM (inactive).

Question: And the GI50 [11]?
Answer: The GI50 was > 10 µM (inactive).

Question: What about the GI50 [12] of the same molecule?
Answer: Its GI50 is > 10 µM (inactive).

Question: And the GI50 [13]?
Answer: The GI50 was 5.98 µM (inactive).

Question: What about the GI50 [14] of the same molecule?
Answer: Its GI50 is > 10 µM (inactive).

Question: What about the GI50 [15] of the same molecule?
Answer: The GI50 was > 10 µM (inactive).

Question: And the GI50 [16]?
Answer: The GI50 was > 10 µM (inactive).

Question: What about the GI50 [17] of the same molecule?
Answer: Its GI50 is > 10 µM (inactive).

Question: What about the GI50 [18] of the same molecule?
Answer: Its GI50 is > 10 µM (inactive).

Question: What about the GI50 [19] of the same molecule?
Answer: Its GI50 is > 10 µM (inactive).

Question: And the GI50 [20]?
Answer: Its GI50 is > 10 µM (inactive).

Question: What about the GI50 [21] of the same molecule?
Answer: Its GI50 is > 10 µM (inactive).

Question: And the GI50 [22]?
Answer: The GI50 was > 10 µM (inactive).

Question: What about the GI50 [23] of the same molecule?
Answer: Its GI50 is greater than 10 µM.

Question: What about the GI50 [24] of the same molecule?
Answer: The GI50 was > 10 µM (inactive).

Question: And the GI50 [25]?
Answer: Its GI50 is > 10 µM (inactive).

Question: And the GI50 [26]?
Answer: The GI50 was > 10 µM (inactive).

Question: What about the GI50 [27] of the same molecule?
Answer: Its GI50 is > 10 µM (inactive).

Question: And the GI50 [28]?
Answer: The GI50 was > 10 µM (inactive).

Question: And the GI50 [29]?
Answer: Its GI50 is > 10 µM (inactive).

Question: And the GI50 [30]?
Answer: The GI50 was > 10 µM (inactive).

Question: And the GI50 [31]?
Answer: Its GI50 is > 10 µM (inactive).

Question: And the GI50 [32]?
Answer: The GI50 was > 10 µM (inactive).

Question: What about the GI50 [33] of the same molecule?
Answer: The GI50 was > 10 µM (inactive).

Question: And the GI50 [34]?
Answer: The GI50 was > 10 µM (inactive).

Question: What about the GI50 [35] of the same molecule?
Answer: Its GI50 is > 10 µM (inactive).

Question: And the GI50 [36]?
Answer: Its GI50 is > 10 µM (inactive).

Question: What about the GI50 [37] of the same molecule?
Answer: The GI50 was > 10 µM (inactive).

Question: And the GI50 [38]?
Answer: The GI50 was 59.4 µM (inactive).

Question: And the GI50 [39]?
Answer: The GI50 was > 10 µM (inactive).

Question: What about the GI50 [40] of the same molecule?
Answer: The GI50 was > 10 µM (inactive).

Question: And the GI50 [41]?
Answer: Its GI50 is > 10 µM (inactive).

Question: And the GI50 [42]?
Answer: Its GI50 is > 10 µM (inactive).

Question: And the GI50 [43]?
Answer: Its GI50 is > 10 µM (inactive).

Question: What about the GI50 [44] of the same molecule?
Answer: Its GI50 is > 10 µM (inactive).

Question: And the GI50 [59]?
Answer: Its GI50 is > 10 µM (inactive).

Question: And the GI50 [45]?
Answer: The GI50 was > 10 µM (inactive).

Question: And the GI50 [46]?
Answer: The GI50 was 22.5 µM (inactive).

Question: And the GI50 [47]?
Answer: The GI50 was > 10 µM (inactive).

Question: What about the GI50 [48] of the same molecule?
Answer: Its GI50 is > 10 µM (inactive).

Question: And the GI50 [49]?
Answer: The GI50 was > 10 µM (inactive).

Question: What about the GI50 [50] of the same molecule?
Answer: The GI50 was > 10 µM (inactive).

Question: What about the GI50 [51] of the same molecule?
Answer: The GI50 was > 10 µM (inactive).

Question: And the GI50 [52]?
Answer: Its GI50 is > 10 µM (inactive).

Question: What about the GI50 [53] of the same molecule?
Answer: The GI50 was > 10 µM (inactive).

Question: And the GI50 [54]?
Answer: Its GI50 is > 10 µM (inactive).

Question: And the GI50 [55]?
Answer: The GI50 was > 10 µM (inactive).

Question: And the GI50 [56]?
Answer: The GI50 was > 10 µM (inactive).

Question: And the GI50 [57]?
Answer: The GI50 was > 10 µM (inactive).

Question: And the GI50 [58]?
Answer: Its GI50 is > 10 µM (inactive).
